For assay [1], the system named is hES cells. Kind of assay: Cell survival assay, 24 hours (Example 2). The assay is classed as cell-based, human. To be noted: for survival after 24 hours: dissociated hES cells; for survival 24 hours after plating: single cell suspension, O3 medium, absence of ROCK inhibitor. How it is done: (§1) The survival assay was performed as described for the cell adhesion assay above, except that the cells were left in the cell incubator for 24 hours. For inhibition of survival assay, the cells were kept in a medium with function blocking antibodies at the concentrations recommended by the manufacturer or pathway inhibitors at concentrations indicated in the text for 30 minutes, and then plated on the coated dishes. All the experiments were performed in quadruplicate.
Pluripotent hES cells express α1, α5, β1, β2 and γ1 laminin chains. To compare the adhesion and clonal survival of hES cells plated from single cell suspension to different coating substrata, hES cells growing as monolayers on LN-511 or as clusters on a feeder layer were trypsinized into single cell suspension in O3 medium and plated on cell culture dishes coated with Matrigel, LN-111, LN-511, LN-521 or a mixture of LN-511 and LN-521, in the absence or presence of a ROCK inhibitor (Y-27632) and analyzed after 24 hours.

The test system of assay [2] is human ES cells. The experiment in a line: Cell adhesion / single cell survival 1 day after plating (Example 1). The assay is classed as cell-based. To be noted: for cells remaining attached / surviving 24 hours after plating: completely dissociated H5181 cells, O3 medium without any additives, no ROCK inhibitor. Here is the method:
(§2) Ninety-six-well tissue cell culture plates were coated overnight at 4° C. with sterile solutions of the ECM proteins mouse LN-111 (Invitrogen), human recombinant LN-511, and human recombinant LN-521, all at a concentration of 30 μg/ml (5 μg/cm^2). For control cells, BD Matrigel™ hESC qualified (BD Biosciences) was used according to the manufacturer's instructions.
(§3) The assay was performed as described (Extracellular Matrix Protocols, 2000). Briefly, 96-well plates were coated by extracellular matrix proteins as described above and blocked by O3 medium containing bovine serum albumin. The ES cells were plated at a cell density of 600 cell/mm^2 upon extracellular matrix-coated plates and were left to adhere for either 1 hour or 1 day at the cell incubator. Non-adherent cells were washed away, and adherent cells were fixed for 20 min by 5% glutaraldehyde, stained by 0.1% Crystal Violet.

For assay [3], the system named is human ES cells. The experiment in a line: Cell adhesion assay, 1 hour (Example 1). The assay is classed as cell-based. To be noted: O3 medium without any additives, without Y-27632. Here is the method:
as §2, §3

Assay [4] concerns phosphorylated myosin light chain (P-MLC). The experiment in a line: Western blot of phosphorylated myosin light chain. The assay is classed as cell-based, human. To be noted: one and six hours after plating. How it is done:
HS 181 cells were trypsinized into single cell suspension as described above. For inhibition experiments, the cells were kept in O3 medium with blocking antibodies or pathway inhibitors for 30 minutes and then 450K cells were plated on 35 mm dishes precoated with the appropriate matrix coating. For other experiments, same number of cells was plated directly after trypsinization. […] After two washings in ice-cold PBS, the plates with cells were snap frozen in liquid nitrogen and stored at −80° C. To prepare samples for western blots and ELISA, the plates were slowly thawed and kept on ice with 100-150 μl of lysis buffer (50 mM Tris-HCl, pH7.5, 150 mM NaCl, 0.5% deoxycholate, 0.5% SDS, 1% Triton X-100, 1% Igepal, Complete™ (Roche) and Phospho-Stop™ (Roche)) on top. Then, the cells were scraped, pipetted and sheared through a 27G ¾″ needle. After that, the cell pellets were clarified by centrifugation at 16,100 rcf for 15 minutes at 4° C. For western blots, 4-12% gradient gels were used for SDS electrophoresis and the proteins were transferred to PVDF membranes. The membrane was hybridized with the antibody of interest according to the manufacturer's instructions. Chemoluminescent HRP-substrate from Amersham Biosciences was used for visualization. For the densitometry analysis the films were scanned at 2,400 dpi and analyzed by the Chemilmager5500 program (1D-Multi Line densitometry mode). […]
Background: A western blot detects proteins with antibodies after separation by electrophoresis.

Assay [5] deals with hES cells. The experiment in a line: Cell adhesion assay, 1 hour (Example 2). The assay is classed as cell-based, human. To be noted: not shown. How it is done: Tissue cell culture plates were coated overnight at 4° C. with sterile solutions of the ECM proteins, such as human recombinant LN-521, all at a concentration of 30 μg/ml (5 μg/cm^2). Control plates were coated with Matrigel according to the STEMCELL Technologies' instructions. Prior to use, dishes were pre-warmed in an incubator for one hour after which prewarmed O3 medium was added without additional washing of the dish. After applying a fresh LN-521 solution to a new dish, the remaining LN-521 solution could be used at least once more. All the adhesion, survival, and inhibition of survival experiments were carried out using fresh coating materials.
Briefly, 96-well plates were coated by extracellular matrix proteins as described above and blocked by O3 medium containing bovine serum albumin. The ES cells were plated at cell density of 50,000 cells/cm^2 onto extracellular matrix-coated plates and left to adhere for 1 hour in a cell incubator. After that the plates were washed 3 times with the medium to remove the non-adherent cells, and then the adherent cells were fixed for 20 minutes by 5% glutaraldehyde, stained by 0.1% Crystal Violet. (Kebo Lab, Spanga, Sweden, http://www.kebolab.se). After one hour and 3 washes with water, Crystal Violet was extracted with 10% acetic acid and quantified by measuring optical density at 570 nm. All the experiments were performed in quadruplicate.

Assay [6] has as its system human embryonic stem cells. Kind of assay: Survival of dissociated human embryonic stem cells one day after plating on precoated dishes. The assay is classed as cell-based. To be noted: single cell suspension, O3 medium, 30 Kcells/cm^2. The source says: In other aspects, the present disclosure provides a new material, isolated laminin-521, which permits human embryonic stem cell survival after dissociation into single cell suspension. The stem cells were dissociated into single cell suspension by Trypsin-EDTA treatment, pelleted by centrifugation, resuspended into O3 medium, filtered through a 40 μm sieve, and plated at a density of 30 Kcells/cm^2 on cell culture dishes precoated by either isolated laminin-521, laminin-511, or Matrigel. After one day in culture, the cells plated on Matrigel died, as is known in the art.

Another assay deals with Integrin α6β1 (Homo sapiens, UniProt P05556+P23229). To be noted: cited from earlier work.
Integrin α6β1, sequence (P23229 24-1130): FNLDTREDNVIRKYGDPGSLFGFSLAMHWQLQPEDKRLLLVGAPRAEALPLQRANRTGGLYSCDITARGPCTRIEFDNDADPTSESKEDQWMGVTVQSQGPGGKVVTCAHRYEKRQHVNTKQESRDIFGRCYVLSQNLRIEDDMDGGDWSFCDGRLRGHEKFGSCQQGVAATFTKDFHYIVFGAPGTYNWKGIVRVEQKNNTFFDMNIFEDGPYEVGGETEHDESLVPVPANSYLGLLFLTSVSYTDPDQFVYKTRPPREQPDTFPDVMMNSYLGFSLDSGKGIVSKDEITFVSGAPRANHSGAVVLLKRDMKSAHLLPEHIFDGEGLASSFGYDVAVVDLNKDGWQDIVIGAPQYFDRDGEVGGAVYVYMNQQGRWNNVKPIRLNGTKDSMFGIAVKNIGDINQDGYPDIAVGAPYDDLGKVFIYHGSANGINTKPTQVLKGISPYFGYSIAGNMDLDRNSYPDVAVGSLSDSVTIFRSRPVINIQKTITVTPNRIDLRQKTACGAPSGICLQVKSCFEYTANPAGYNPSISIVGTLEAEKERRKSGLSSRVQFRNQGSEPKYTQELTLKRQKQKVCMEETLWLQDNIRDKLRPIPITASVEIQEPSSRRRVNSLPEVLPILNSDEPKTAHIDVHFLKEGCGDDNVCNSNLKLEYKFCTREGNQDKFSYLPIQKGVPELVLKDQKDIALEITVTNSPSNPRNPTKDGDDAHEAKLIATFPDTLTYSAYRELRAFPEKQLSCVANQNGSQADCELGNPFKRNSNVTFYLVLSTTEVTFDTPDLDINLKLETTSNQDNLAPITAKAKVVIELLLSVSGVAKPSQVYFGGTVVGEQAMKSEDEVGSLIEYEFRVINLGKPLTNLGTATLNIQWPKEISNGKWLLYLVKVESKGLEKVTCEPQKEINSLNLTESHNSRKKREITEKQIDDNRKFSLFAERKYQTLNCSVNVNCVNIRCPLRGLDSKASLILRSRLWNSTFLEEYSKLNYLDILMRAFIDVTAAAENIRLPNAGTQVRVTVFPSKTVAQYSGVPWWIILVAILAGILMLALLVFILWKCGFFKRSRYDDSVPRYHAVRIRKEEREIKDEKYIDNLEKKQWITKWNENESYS
Integrin α6β1, sequence (P05556 21-798): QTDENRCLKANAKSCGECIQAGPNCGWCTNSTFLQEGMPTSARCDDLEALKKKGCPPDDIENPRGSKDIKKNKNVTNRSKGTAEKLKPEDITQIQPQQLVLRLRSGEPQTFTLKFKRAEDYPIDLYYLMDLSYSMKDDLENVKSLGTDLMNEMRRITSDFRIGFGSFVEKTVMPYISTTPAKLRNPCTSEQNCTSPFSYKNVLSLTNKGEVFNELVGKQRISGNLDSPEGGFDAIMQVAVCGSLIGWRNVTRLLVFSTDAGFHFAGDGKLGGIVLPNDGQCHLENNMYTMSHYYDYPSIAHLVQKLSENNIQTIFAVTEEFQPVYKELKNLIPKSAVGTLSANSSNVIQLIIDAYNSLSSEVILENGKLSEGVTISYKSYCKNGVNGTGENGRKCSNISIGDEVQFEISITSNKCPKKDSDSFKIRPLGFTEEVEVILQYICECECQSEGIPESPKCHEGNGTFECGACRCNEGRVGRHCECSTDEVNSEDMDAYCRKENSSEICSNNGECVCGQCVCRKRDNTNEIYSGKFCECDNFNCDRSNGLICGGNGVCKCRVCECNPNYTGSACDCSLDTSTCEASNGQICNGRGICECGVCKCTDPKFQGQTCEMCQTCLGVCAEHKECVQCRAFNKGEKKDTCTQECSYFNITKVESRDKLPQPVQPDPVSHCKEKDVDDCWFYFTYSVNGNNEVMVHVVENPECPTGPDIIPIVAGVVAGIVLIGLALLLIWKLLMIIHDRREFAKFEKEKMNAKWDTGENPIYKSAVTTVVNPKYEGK
In assay [7] the test system is human ES cells. To be noted: teratomas after engraftment into SCID mice; cited from earlier work.
The subject of another assay is mouse ES cells. To be noted: without LIF or feeder cells; cited from earlier work.
For assay [8], the system named is hES cells. The experiment in a line: Inhibition of survival assay on LN-521. To be noted: medium contained bFGF. The assay is classed as cell-based, human. How it is done: as §1
In assay [9] the test system is PI3K/Akt and MEK1/Erk pathways. Kind of assay: Western blot with antibodies to phospho-Akt / phospho-Erk. The assay is classed as cell-based, human. To be noted: cells collected one hour after plating on LN-521. How it is done:
HS 181 cells were trypsinized into single cell suspension as described above. For inhibition experiments, the cells were kept in O3 medium with blocking antibodies or pathway inhibitors for 30 minutes and then 450K cells were plated on 35 mm dishes precoated with the appropriate matrix coating. For other experiments, same number of cells was plated directly after trypsinization. In all cases the cells were allowed to spread for 1 hour at 37° C., 5% CO2. After two washings in ice-cold PBS, the plates with cells were snap frozen in liquid nitrogen and stored at −80° C. To prepare samples for western blots and ELISA, the plates were slowly thawed and kept on ice with 100-150 μl of lysis buffer (50 mM Tris-HCl, pH7.5, 150 mM NaCl, 0.5% deoxycholate, 0.5% SDS, 1% Triton X-100, 1% Igepal, Complete™ (Roche) and Phospho-Stop™ (Roche)) on top. Then, the cells were scraped, pipetted and sheared through a 27G ¾″ needle. After that, the cell pellets were clarified by centrifugation at 16,100 rcf for 15 minutes at 4° C. For western blots, 4-12% gradient gels were used for SDS electrophoresis and the proteins were transferred to PVDF membranes. The membrane was hybridized with the antibody of interest according to the manufacturer's instructions. […] For the densitometry analysis the films were scanned at 2,400 dpi and analyzed by the Chemilmager5500 program (1D-Multi Line densitometry mode). […]

The subject of assay [10] is hES cells. Kind of assay: Clonal survival of individualized hES cells (Example 4). The assay is classed as cell-based, human. To be noted: mTeSR1 medium, 250 cells per cm^2, 5 days, alkaline phosphatase staining. How it is done: hES cells were plated in mTeSR1 medium on different coatings at a density of 250 cells per cm^2 and monitored after 5 days in culture using an alkaline phosphatase staining kit.
Next, combinations of laminin-521 and E-Cadherin were tested to determine whether the combinations could sustain clonal survival of the cells. Fixed amounts of laminin-521 were used for the cell culture dish coating in combination with titrated E-Cadherin.
Additional tests were performed to test the effects of various modifications to the mTeSR1 medium. A mixture of E-Cadherin to laminin-521 in a ratio of about 1:10 w/w was used to coat the plates. […] Time-lapse photography of the cells confirmed that laminin-521/E-Cadherin coatings facilitated cell survival through proliferation of the single cells, not through the aggregation of different cells.

As to “LN-111: mouse laminin-111 (Invitrogen), indicated as LN-111 if not otherwise stated”, in the assay with hES cells [1], the “survival after 24 hours” value is reported as “almost no cells had survived” and the “survival 24 hours after plating” value is “did not survive”. The “cells remaining attached / surviving 24 hours after plating” value in the assay with human ES cells [2] is reported as “almost no cells remained attached”.

Consider “LN-511: human recombinant laminin-511 coating protein”, for which the “adhesion of human ES cells at 1 hour” value in the assay on human ES cells [3] is on record as “roughly the same”. For the same molecule, the “phosphorylation of MLC compared with cells on Matrigel and LN-111” value in assay [4] is recorded as “even higher”. Further, in the assay with hES cells [5], the “spreading of the cells after one hour compared with Matrigel or LN-111” value is given as “clearly better”. In addition, the “survival after one day in culture” value in assay [6] is reported as “in most cases”. In the assay with hES cells [1], the “survival after 24 hours” value is given as “very few” and the “survival 24 hours after plating” value was “did so as single cells”. Further, in the assay with Integrin α6β1, the “binding affinity of integrin α6β1 compared with LN-111” value is reported as “higher”. In addition, in the assay with human ES cells [2], the “cells remaining attached / surviving 24 hours after plating” value is “at a less extent”. Further, in the assay with human ES cells [7], the “pluripotency of human ES cells grown over 3 months” value was “maintain pluripotency”. The “duration of self-renewal of mouse ES cells” value in the assay with mouse ES cells is reported as “over 5 months”.

`C[C@@H](N)[C@H]1CC[C@H](C(=O)Nc2ccncc2)CC1` [Y-27632, reference compound]: in the assay on hES cells [1] (Matrigel, LN-111, LN-511, LN-521 or mixture coatings), the “survival 24 hours after plating in the presence of ROCK inhibitor” value was “survived on all surfaces”. The “cells remaining attached after one day” value in the assay with human ES cells [2] (O3 medium treated with ROCK inhibitor Y-27632, 5 coatings) is recorded as “remained attached on all 5 coatings”.

For the molecule “LN-121: human recombinant laminin with α1, β2 and γ1 chains from triple-transfected HEK293 cells”, in the assay with hES cells [1], the “survival 24 hours after plating” value was “failed to survive”.

In the case of `COc1cccc(-c2cc(=O)c3ccccc3o2)c1N` [PD 98059], the “hES cell survival 24 hours after plating on LN-521 with pathway inhibitor” value in the assay on hES cells [8] is “did not affect the survival that severely”. Further, the “efficacy of inhibitor treatment by western blot” value in [9] is “confirmed”.

In the case of “human recombinant LN-111: human recombinant laminin with α1, β1 and γ1 chains from triple-transfected HEK293 cells”, the “survival 24 hours after plating” value with hES cells [1] is listed as “failed to survive”.

B1: E-Cadherin: epithelial-cadherin used as cell culture dish coating (protein, UniProt P12830 155-882, looked up)
Cadherin-1: DWVIPPISCPENEKGPFPKNLVQIKSNKDKEGKVFYSITGQGADTPPVGVFIIERETGWLKVTEPLDRERIATYTLFSHAVSSNGNAVEDPMEILITVTDQNDNKPEFTQEVFKGSVMEGALPGTSVMEVTATDADDDVNTYNAAIAYTILSQDPELPDKNMFTINRNTGVISVVTTGLDRESFPTYTLVVQAADLQGEGLSTTATAVITVTDTNDNPPIFNPTTYKGQVPENEANVVITTLKVTDADAPNTPAWEAVYTILNDDGGQFVVTTNPVNNDGILKTAKGLDFEAKQQYILHVAVTNVVPFEVSLTTSTATVTVDVLDVNEAPIFVPPEKRVEVSEDFGVGQEITSYTAQEPDTFMEQKITYRIWRDTANWLEINPDTGAISTRAELDREDFEHVKNSTYTALIIATDNGSPVATGTGTLLLILSDVNDNAPIPEPRTIFFCERNPKPQVINIIDADLPPNTSPFTAELTHGASANWTIQYNDPTQESIILKPKMALEVGDYKINLKLMDNQNKDQVTTLEVSVCDCEGAAGVCRKAQPVEAGLQIPAILGILGGILALLILILLLLLFLRRRAVVKEPLLPPEDDTRDNVYYYDEEGGGEEDQDFDLSQLHRGLDARPEVTRNDVAPTLMSVPRYLPRPANPDEIGNFIDENLKAADTDPTAPPYDSLLVFDYEGSGSEAASLSSLNSSESDKDQDYDYLNEWGNRFKKLADMYGGGEDD
B1: the “clonal survival of individualized hES cells” value with hES cells [10] is “Neither laminin-521 nor E-Cadherin alone permitted efficient clonal survival”.

The record behind these values is US10138292B2, “Cell culture medium” (BIOLAMINA AB, priority 2010, dated 2018).
